Read-outs that look alike come from different tables or passages of the source.

The conditions of data set [1]: mouse, in vivo, po.
Experimental: (§1) Thirty-six male CD-1 mice (22-24 g) were purchased from Charles River Labs (Wilmington, Mass.). Before the study, they were allowed acclimation for at least 3 days in an SPF facility. Animal housing, handling and procedures were conducted under the protocols or guidelines approved by the Institutional Animal Care and Use Committee (IACUC) of Cephrim Biosciences, Inc. (Woburn, Mass.). Three mice were housed in each cage. The temperature, humidity and light/dark cycle were well maintained at 68-76° F., 40-60% relative humidity, with a 12 h light/dark cycle. Mice were allowed free access to water and food.
(§2) On the first day of the study, the mice were randomly assigned into two groups, alcohol extract (AE, of DDGS) group and oil extract (OE, of DDGS) group. Each group of mice was further divided into 6 subgroups, representing 6 time points (i.e., 0 hr, 0.5 hr, 1.0 hr, 3.0 hr, 7.0 hr and 24 hr). Each of two extracts was given to each group of mice by oral gavage at the dosage of 2 mL for AE and 2 mL for OE. The time of dosing was set as the Time Zero. Blood samples were collected by cardiac puncture and were immediately transferred to a set of heparinized tubes.
(§3) Blood samples at Time-0 hr were collected right before dosing. And at each of rest 5 time points the Time-0.5 hr, -1.0 hr, -3.0 hr, -7.0 hr and −24 hr after the extracts were given, blood samples were collected from each subgroup (n=3). All blood samples were placed on ice after their collection and were spun at 14000 rpm/min. The top plasma were transferred into new pre-labeled tubes and the samples were stored at −70° C. until analysis.
(§4) Mice plasmas (150 pt) were mixed with 600 pt of hexane and shaken at 200 rpm for 10 min. The mixtures were centrifuged at 14,000 rpm for 6 min. The supernatant was evaporated to dryness under nitrogen and replaced with 100 pt of methanol. […]
(§5) Compounds were separated on a C30 reverse-phase column (250×4.6 mm, 5 um) at a flow rate of 1 mL/min. […] The detection was conducted in a fluorescence detector with excitation of 292 nm and emission of 336 nm. […]
A short description of data set [2]: Bioavailability study: absorption of DDGS phytochemicals in plasma of mice after oral gavage of DDGS extracts. Particulars: oral gavage of 2 mL alcohol extract (AE) or oil extract (OE) of DDGS, plasma sampled at 0, 0.5, 1.0, 3.0, 7.0 and 24 hr, HPLC.
Experimental: as §1, §2, §3, §4, §5

`Cc1c(C)c2c(c(C)c1O)CC[C@@](C)(CCC[C@H](C)CCC[C@H](C)CCCC(C)C)O2` [alpha-tocopherol]: the “time of maximal absorption in plasma of mice after gastric infusion” value (from here on “time of maximal absorption”) in data set [1] came to 3 h.
Turning to `CC(C)=CCC/C(C)=C/CC/C(C)=C/CC[C@]1(C)CCc2cc(O)cc(C)c2O1` [delta-tocotrienol], the “time of maximal absorption” value in data set [1] came out at 24 h.
As to `Cc1c(O)cc2c(c1C)O[C@](C)(CCC[C@H](C)CCC[C@H](C)CCCC(C)C)CC2` [gamma-tocopherol], the “time of maximal absorption” value in data set [2] was determined as 3 h.

The values above are taken from patent US20170044521A1, “BIOMASS EXTRACTS AND METHODS THEREOF” (Lakeview Nutrition LLC, priority 2014, published 2017).
